Converted amounts (≈) assume the structure as drawn.
Legend:
Format in all cases: cell-based
[1] = system: Staphylococcus aureus 1086; experiment: MIC, standard microdilution technique; conditions: for MIC: read-out: minimum inhibitory concentration (MIC), Strain B
From the text: (§1) The antibacterial activities of the compounds have been determined by standard microdilution technique (National Committee for Clinical Laboratory Standards. 2000. Methods for Dilution Antimicrobial Susceptibility Tests for Bacteria that Grow Aerobically, 5th edition. Approved standard M7-A5. National Committee for Clinical Laboratory Standards, Wayne, Pa.).

[2] = system: Streptococcus pneumoniae 12288; experiment: MIC, standard microdilution technique; conditions: for MIC: read-out: minimum inhibitory concentration (MIC), Strain H
From the text: as §1

[3] = system: Staphylococcus aureus ATCC 29213; experiment: MIC, standard microdilution technique; conditions: for MIC: ATCC29213, read-out: minimum inhibitory concentration (MIC), Strain A
From the text: as §1

[4] = system: Streptococcus pneumoniae SL199T; experiment: MIC, standard microdilution technique; conditions: for MIC: read-out: minimum inhibitory concentration (MIC), Strain G
From the text: as §1

[5] = system: Streptococcus pneumoniae ¼; experiment: MIC, standard microdilution technique; conditions: for MIC: read-out: minimum inhibitory concentration (MIC), Strain F
From the text: as §1

[6] = system: Streptococcus pneumoniae l/l; experiment: MIC, standard microdilution technique; conditions: for MIC: read-out: minimum inhibitory concentration (MIC), Strain E
From the text: as §1

[7] = system: Escherichia coli ATCC 25922; experiment: MIC, standard microdilution technique; conditions: for MIC: ATCC25922, read-out: minimum inhibitory concentration (MIC), Strain D
From the text: as §1

[8] = system: Staphylococcus aureus 745; experiment: MIC, standard microdilution technique; conditions: for MIC: read-out: minimum inhibitory concentration (MIC), Strain C
From the text: as §1

[9] = system: Haemophilus influenzae QK50; experiment: MIC, standard agar dilution method using HTM medium; conditions: for MIC: read-out: minimum inhibitory concentration (MIC), Strain L
From the text: (§2) The biological activities of compounds of the present invention against Haemophilus influenzae have been determined by standard agar dilution method using HTM medium (National Committee for Clinical Laboratory Standards. 2000. Methods for Dilution Antimicrobial Susceptibility Tests for Bacteria that Grow Aerobically, 5th edition. Approved standard M7-A5. National Committee for Clinical Laboratory Standards, Wayne, Pa.).

[10] = system: Haemophilus influenzae B1501; experiment: as above; conditions: for MIC: read-out: minimum inhibitory concentration (MIC), Strain M
From the text: as §2

[11] = system: Haemophilus influenzae 12214; experiment: as above; conditions: for MIC: read-out: minimum inhibitory concentration (MIC), Strain K
From the text: as §2

[12] = system: Haemophilus influenzae QK12/87; experiment: as above; conditions: for MIC: read-out: minimum inhibitory concentration (MIC), Strain I
From the text: as §2

SMILES	MIC [1]	MIC [2]	MIC [3]	MIC [4]	MIC [5]	MIC [6]	MIC [7]	MIC [8]	minimum inhibitory concentration (MIC), Strain B [1]	minimum inhibitory concentration (MIC), Strain H [2]	minimum inhibitory concentration (MIC), Strain A [3]	minimum inhibitory concentration (MIC), Strain G [4]	minimum inhibitory concentration (MIC), Strain F [5]	minimum inhibitory concentration (MIC), Strain E [6]	minimum inhibitory concentration (MIC), Strain D [7]	minimum inhibitory concentration (MIC), Strain C [8]	minimum inhibitory concentration (MIC), Strain L [9]	minimum inhibitory concentration (MIC), Strain M [10]	minimum inhibitory concentration (MIC), Strain K [11]	minimum inhibitory concentration (MIC), Strain I [12]	also measured
CC[C@H]1OC(=O)[C@@](C)(F)C(=O)[C@H](C)[C@@H](O[C@@H]2O[C@H](C)C[C@H](N(C)C)[C@H]2O)[C@](C)(OC)C[C@@H](C)C(=O)[C@H](C)[C@H]2[C@@H](SCCn3cnc(-c4cccnc4)n3)C(=O)O[C@@]21C (single isomer, unassigned) [Example 12, (3R or S, 3aR, 4R or S, 6R, 8R, 9R, 10R, 12S, 15R, 15aS)-15-Ethyl-12-fluorooctahydro-8-methoxy-4,6,8,10,12,15a-hexamethyl-3-[[2-[3-(3-pyridinyl)-1H-1,2,4-triazole-1-yl]ethyl]thio]-9-[[3,4,6-trideoxy-3-(dimethylamino)-β-D-xylo-hexopyranosyl]oxy]-2H-furo [2,3-c] oxacyclotetradecin-2,5,11,13 (3H,6H,12H)-tetrone]	≤ 0.06 mg/L	4 mg/L (≈ 4.8 µM)	≤ 0.06 mg/L	0.25 mg/L (≈ 0.3 µM)	≤ 0.06 mg/L	≤ 0.06 mg/L	> 32 mg/L	> 32 mg/L	–	–	–	–	–	–	–	–	–	–	–	–	MIC [9]: 4 mg/L (≈ 4.8 µM); MIC [10]: 4 mg/L (≈ 4.8 µM); MIC [11]: 4 mg/L (≈ 4.8 µM); MIC [12]: 8 mg/L (≈ 9.59 µM)
CC[C@H]1OC(=O)[C@@](C)(F)C(=O)[C@H](C)[C@@H](O[C@@H]2O[C@H](C)C[C@H](N(C)C)[C@H]2O)[C@](C)(OC)C[C@@H](C)C(=O)[C@H](C)[C@H]2[C@@H](SCCOCn3cc(C)c(=O)[nH]c3=O)C(=O)O[C@@]21C (single isomer, unassigned) [Example 14, (3R or S) 3aR, 4R or S, 6R, 8R, 9R, 10R, 12S, 15R, 15aS)-15-Ethyl-12-fluorooctahydro-8-methoxy-4,6,8,10,12,15a-hexamethyl-3-[[2-[[5-methyl-2,4-(1H,3H)-pyrimidinedione-1-yl]methoxy]ethyl]thio]-9-[[3,4,6-trideoxy-3-(dimethylamino)-β-D-xylo-hexopyranosyl]oxy]-2H-furo [2,3-c] oxacyclotetradecin-2,5,11,13 (3H,6H,12H)-tetrone]	–	–	–	–	–	–	–	–	<=0.06 μg/ml	16 mg/L (≈ 19 µM)	<=0.06 μg/ml	1 mg/L (≈ 1.18 µM)	2 mg/L (≈ 2.37 µM)	<=0.06 μg/ml	>32 mg/L	>32 mg/L	2 mg/L (≈ 2.37 µM)	2 mg/L (≈ 2.37 µM)	2 mg/L (≈ 2.37 µM)	2 mg/L (≈ 2.37 µM)	–
CC[C@H]1OC(=O)[C@H](C)C(=O)[C@H](C)[C@@H](O[C@@H]2O[C@H](C)C[C@H](N(C)C)[C@H]2O)[C@](C)(OC)C[C@@H](C)C(=O)[C@H](C)[C@H]2[C@@H](SCCNC(=O)c3cccnc3)C(=O)O[C@@]21C (single isomer, unassigned) [Example 19, (3R or S, 3aR, 4R or S, 6R, 8R, 9R, 10R, 12R, 15R, 15aS) -15-Ethyloctahydro-8-methoxy-4,6,8,10,12,15a-hexamethyl-3-[[2-[(3-pyridinylcarbonyl)amino]ethyl]thio]-9-[[-3,4,6-trideoxy-3-(dimethylamino)-β-D-xylo-hexopyranosyl]oxy]-2H-furo [2,3-c] oxacyclotetradecin-2,5,11,13 (3H,6H,12H)-tetrone]	0.25 mg/L (≈ 0.316 µM)	> 32 mg/L	0.25 mg/L (≈ 0.316 µM)	32 mg/L (≈ 40.4 µM)	2 mg/L (≈ 2.53 µM)	0.125 mg/L (≈ 0.158 µM)	> 32 mg/L	> 32 mg/L	–	–	–	–	–	–	–	–	–	–	–	–	MIC [9]: 8 mg/L (≈ 10.1 µM); MIC [10]: 4 mg/L (≈ 5.05 µM); MIC [11]: 4 mg/L (≈ 5.05 µM); MIC [12]: 4 mg/L (≈ 5.05 µM)
CC[C@H]1OC(=O)[C@H](C)C(=O)[C@H](C)[C@@H](O[C@@H]2O[C@H](C)C[C@H](N(C)C)[C@H]2O)[C@](C)(OC)C[C@@H](C)C(=O)[C@H](C)[C@H]2[C@@H](SCCNS(=O)(=O)c3ccc(-c4ccccn4)s3)C(=O)O[C@@]21C (single isomer, unassigned) [Example 21]	–	–	–	–	–	–	–	–	0.125 mg/L (≈ 0.137 µM)	32 mg/L (≈ 35.2 µM)	0.125 mg/L (≈ 0.137 µM)	16 mg/L (≈ 17.6 µM)	8 mg/L (≈ 8.79 µM)	<=0.06 μg/ml	>32 mg/L	>32 mg/L	16 mg/L (≈ 17.6 µM)	16 mg/L (≈ 17.6 µM)	16 mg/L (≈ 17.6 µM)	32 mg/L (≈ 35.2 µM)	–
CC[C@H]1OC(=O)[C@H](C)C(=O)[C@H](C)[C@@H](O[C@@H]2O[C@H](C)C[C@H](N(C)C)[C@H]2O)[C@](C)(OC)C[C@@H](C)C(=O)[C@H](C)[C@H]2[C@@H](SCC#Cc3ccc(C#N)cc3)C(=O)O[C@@]21C (single isomer, unassigned) [Example 23]	–	–	–	–	–	–	–	–	16 mg/L (≈ 20.4 µM)	>32 mg/L	16 mg/L (≈ 20.4 µM)	>32 mg/L	>32 mg/L	1 mg/L (≈ 1.28 µM)	>32 mg/L	>32 mg/L	>32 mg/L	>32 mg/L	>32 mg/L	>32 mg/L	–
CC[C@H]1OC(=O)[C@@](C)(F)C(=O)[C@H](C)[C@@H](O[C@@H]2O[C@H](C)C[C@H](N(C)C)[C@H]2O)[C@](C)(OC)C[C@@H](C)C(=O)[C@H](C)[C@H]2[C@@H](SCC(=O)Nc3cccc4cccnc34)C(=O)O[C@@]21C (single isomer, unassigned) [Example 25]	–	–	–	–	–	–	–	–	0.125 mg/L (≈ 0.148 µM)	4 mg/L (≈ 4.73 µM)	0.25 mg/L (≈ 0.295 µM)	2 mg/L (≈ 2.36 µM)	0.125 mg/L (≈ 0.148 µM)	<=0.06 μg/ml	>32 mg/L	32 mg/L (≈ 37.8 µM)	4 mg/L (≈ 4.73 µM)	8 mg/L (≈ 9.46 µM)	4 mg/L (≈ 4.73 µM)	8 mg/L (≈ 9.46 µM)	–
CC[C@H]1OC(=O)[C@H](C)C(=O)[C@H](C)[C@@H](O[C@@H]2O[C@H](C)C[C@H](N(C)C)[C@H]2O)[C@](C)(OC)C[C@@H](C)C(=O)[C@H](C)[C@H]2[C@@H](SCCNC(=O)c3cnc4ccccc4c3)C(=O)O[C@@]21C (single isomer, unassigned) [Example 27, (3R or S, 3aR, 4R or S, 6R, 8R, 9R, 10R, 12R, 15R, 15aS)-15-Ethyloctahydro-8-methoxy-4,6,8,10,12,15a-hexamethyl-3-[[2-[(3-quinolinylcarbonyl)amino]ethyl]thio]-9-[[3,4,6-trideoxy-3-(dimethylamino)-β-D-xylo-hexopyranosyl]oxy]-2H-furo [2,3-c] oxacyclotetradecin-2,5,11,13 (3H,6H,12H)-tetrone]	≤ 0.06 mg/L	> 32 mg/L	≤ 0.06 mg/L	8 mg/L (≈ 9.5 µM)	8 mg/L (≈ 9.5 µM)	≤ 0.06 mg/L	> 32 mg/L	> 32 mg/L	–	–	–	–	–	–	–	–	–	–	–	–	MIC [9]: 16 mg/L (≈ 19 µM); MIC [10]: 8 mg/L (≈ 9.5 µM); MIC [11]: 16 mg/L (≈ 19 µM); MIC [12]: 16 mg/L (≈ 19 µM)
